Measured values published in ChEMBL document CHEMBL1201862, “PubChem BioAssay data set” (2004).
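Values below derive from 48-hour exposures of cells grown in 96-well plates, with endpoints linearly interpolated between the two concentrations bracketing the appropriate inhibition level. Abbreviation: GI50, concentration required for 50% inhibition of growth.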 The source made the active and inactive calls. No stated cut-off is given here; in the data, active = GI50 up to about 1.1 µM and inactive = higher. Starred links: 1 amine or outer side, 2 acyl side, 3 side chain; linkers in the order of their positions; H or OH if unused. Non-standard residues stand in square brackets, D forms with d. Residues, ends and D or L forms follow the SMILES beside them. ξ: configuration not given here. X24 = O=C(C(CC(O)CO)O[*:1])[*:2]; Ile(3ξ) = CCC(C)[C@H](N)C(=O)O; NMeV = CN[C@H](C(=O)O)C(C)C; NMeA = CN[C@@H](C)C(=O)O; βAla = NCCC(=O)O

Legend:
Assay in all cases: NCI anticancer screen, dose series, 48 h
DLD-1 = system: DLD-1
DMS-114 = system: DMS-114
KM-20L2 = system: KM-20L2
LXFL 529 = system: LXFL 529
M19-MEL = system: M19-MEL
XF498 = system: XF498
RXF 631 = system: RXF 631
SNB-78 = system: SNB-78
HOP-18 = system: HOP-18

Measured: GI50

CC(=O)O/N=C/c1cc2c(cc1Br)OCO2
inactive: DLD-1 > 349 µM | DMS-114 > 349 µM | KM-20L2 > 349 µM | LXFL 529 > 349 µM | M19-MEL > 349 µM | XF498 > 349 µM

CCC(C)[C@@H]1NC(=O)[C@@H]2CCCN2C(=O)C(CC(O)CO)OC(=O)CCNC(=O)[C@H](C)N(C)C(=O)[C@H](C(C)C)N(C)C1=O (some centres not stated) (cyclo([Ile(3ξ)][NMeV][NMeA][βAla][X24]P))
inactive: DLD-1 > 100 µM | KM-20L2 > 100 µM | LXFL 529 44.6 µM | M19-MEL > 100 µM | RXF 631 > 100 µM | SNB-78 > 100 µM | XF498 > 100 µM

C=C1c2ccccc2N(S(=O)(=O)c2ccc(C)cc2)C12CCCCC2
inactive: DLD-1 > 100 µM | DMS-114 18.9 µM | HOP-18 > 100 µM | KM-20L2 > 100 µM | LXFL 529 37.2 µM | M19-MEL 47.1 µM | XF498 > 100 µM

CCOc1ccc2c(c1)[n+]([O-])c(-c1ccccc1Cl)c(N)[n+]2[O-]
inactive: DLD-1 > 100 µM | DMS-114 > 100 µM | HOP-18 > 100 µM | KM-20L2 > 100 µM | LXFL 529 > 100 µM | M19-MEL > 100 µM | RXF 631 > 100 µM | SNB-78 > 100 µM | XF498 > 100 µM

O=C(O)c1cc2ccc(Cl)cc2c(O)c1C1=CCCCC1
inactive: DLD-1 41.7 µM | DMS-114 24.8 µM | HOP-18 60.5 µM | KM-20L2 51.6 µM | LXFL 529 35.3 µM | M19-MEL 35.8 µM | RXF 631 32.1 µM | SNB-78 27.4 µM | XF498 18.7 µM

COc1c2c(c3c(c1C1OC(C)[C@@H](C)O1)CC(C)(C)O3)C(=O)c1ccccc1C2=O (some centres not stated)
inactive: DLD-1 36.1 µM | DMS-114 37.4 µM | KM-20L2 29.2 µM | LXFL 529 23.1 µM | M19-MEL 36.7 µM | RXF 631 9.91 µM | SNB-78 > 100 µM | XF498 41 µM

O=C1NC2C=CN(Cc3ccccc3)C=C2C(=O)N2CCCC12 (configuration not stated)
inactive: DLD-1 > 100 µM | DMS-114 > 100 µM | HOP-18 > 100 µM | KM-20L2 > 100 µM | LXFL 529 > 100 µM | M19-MEL > 100 µM | RXF 631 > 100 µM | SNB-78 > 100 µM | XF498 > 100 µM

Cc1cc(Cl)ccc1NC(=O)C1C(=O)C(=O)N(c2ccc(Cl)cc2C)C1=O (configuration not stated)
inactive: DLD-1 > 100 µM | DMS-114 25.1 µM | KM-20L2 48.3 µM | LXFL 529 48.3 µM | M19-MEL > 100 µM | RXF 631 68.2 µM | SNB-78 76 µM

CCCCCCCC(=O)OCC(COC(=O)C(C)(C)C)OC(=O)Cc1ccccc1 (configuration not stated)
inactive: DLD-1 > 100 µM | DMS-114 > 100 µM | HOP-18 > 100 µM | KM-20L2 > 100 µM | LXFL 529 > 100 µM | M19-MEL > 100 µM

COc1ccc(-c2cc(C(=O)Nc3cccc(C(F)(F)F)c3)nc(S)n2)cc1
inactive: DLD-1 > 100 µM | DMS-114 > 100 µM | HOP-18 > 100 µM | KM-20L2 > 100 µM | LXFL 529 > 100 µM | M19-MEL > 100 µM | SNB-78 > 100 µM | XF498 > 100 µM

CC(=O)O[C@H]1CC[C@@]2(C)C(=CC[C@@H]3C2CC[C@]2(C)Nc4c(cnn4-c4ccccc4)CC32)C1 (some centres not stated)
inactive: DLD-1 21.4 µM | DMS-114 37.1 µM | KM-20L2 3.78 µM | LXFL 529 17.9 µM | M19-MEL 34.2 µM | SNB-78 14.4 µM | XF498 25.7 µM

N#C/C(=N\c1ccccc1N(C(=O)c1ccccc1)C(=O)c1ccccc1)c1ccccc1
inactive: DLD-1 > 42 µM | DMS-114 4.63 µM | HOP-18 > 40.4 µM | KM-20L2 9.71 µM | LXFL 529 41 µM | M19-MEL > 100 µM | SNB-78 > 91 µM | XF498 7.8 µM

O=C(O)CCSCCCN1C(=O)c2ccccc2C1=O
inactive: DMS-114 > 100 µM | KM-20L2 > 100 µM | LXFL 529 > 100 µM | M19-MEL > 100 µM | SNB-78 > 100 µM

COc1cc(C2C(C(=O)O)=C(COC(C)=O)Oc3cc4c(cc32)OCO4)cc(OC)c1OC(C)=O (configuration not stated)
inactive: DLD-1 > 100 µM | DMS-114 > 100 µM | HOP-18 > 100 µM | KM-20L2 > 100 µM | M19-MEL > 100 µM | RXF 631 > 100 µM | SNB-78 > 100 µM | XF498 > 100 µM

COc1cc2c3c(c1OC)-c1ccccc1C(C(O)c1ccccc1)C3N(C)CC2 (configuration not stated)
inactive: DLD-1 26.4 µM | DMS-114 17.6 µM | HOP-18 82.8 µM | KM-20L2 20.1 µM | LXFL 529 29.6 µM | M19-MEL 27.8 µM | RXF 631 22.2 µM | SNB-78 65.9 µM | XF498 19.1 µM

O=C(/C=C\c1cccc2ccccc12)c1cccs1
inactive: DLD-1 3.77 µM | DMS-114 4.3 µM | HOP-18 10.2 µM | KM-20L2 10.7 µM | LXFL 529 10.9 µM | M19-MEL 8.3 µM | SNB-78 15.1 µM

CCCCCCCC/C=C\CCCCCCCC(=O)NCCN(CCN)C(=O)CCCCCCC/C=C\CCCCCCCC
inactive: DLD-1 > 100 µM | DMS-114 > 100 µM | HOP-18 > 100 µM | KM-20L2 > 100 µM | LXFL 529 > 100 µM | M19-MEL > 100 µM

COc1cc(C)c(C(=O)/C=C/c2cc(OC)c(O)c(OC)c2)cc1O
inactive: DLD-1 15.3 µM | DMS-114 20.5 µM | KM-20L2 26.5 µM | LXFL 529 20.4 µM | M19-MEL 19.3 µM | RXF 631 20.8 µM | SNB-78 45.5 µM | XF498 15.7 µM

CN(C)CCc1ccc(Cl)cc1Cl
inactive: DLD-1 > 100 µM | DMS-114 > 100 µM | HOP-18 > 100 µM | KM-20L2 > 100 µM | LXFL 529 > 100 µM | M19-MEL > 100 µM | RXF 631 > 100 µM | XF498 > 100 µM

C=CCOC1CC(n2cnc3c(N)ncnc32)OC1CO (configuration not stated)
inactive: DLD-1 > 100 µM | DMS-114 > 100 µM | KM-20L2 > 100 µM | LXFL 529 > 100 µM | M19-MEL > 100 µM | XF498 > 100 µM

O=C(O)COc1ccc(O)c2c1C(=O)CCCC2=O
inactive: DLD-1 > 100 µM | DMS-114 > 100 µM | KM-20L2 > 100 µM | LXFL 529 > 100 µM | M19-MEL > 100 µM | RXF 631 > 100 µM | SNB-78 > 100 µM | XF498 > 100 µM

O=C(O)c1c2c(cc3c(=O)cc(-c4ccccc4)oc13)CCCC2
inactive: DLD-1 > 100 µM | KM-20L2 > 100 µM | LXFL 529 > 100 µM | RXF 631 > 100 µM | SNB-78 > 100 µM | XF498 > 100 µM
